{"source": "patent US11229662B2", "about": "“Compositions and methods for the treatment of aberrant angiogenesis” (The Schepens Eye Research Institute, Inc., priority 2016, dated 2022)", "key": {"RUNX1": {"tested_on": "RUNX1", "assay": "qRT-PCR of RUNX1 expression", "type": "cell-based, human", "experimental": "(§1) FVMs were collected and CD31+ cells were isolated as previously described [Kim L A, et al. (2015) Mol Vis 21:673-687]. RNA-sequencing was performed using an Illumina HiSeq 2000 (Illumina Inc.), aligned with TopHat (Trapnell et al. (2009) Bioinformatics 25(9):1105-1111], and analyzed using Partek Flow, CuffLinks, EdgeR, and DESeq2. A mixed model ANOVA was used with a threshold false discovery rate (FDR) of <0.05 and fold change >±2 for significance. Gene Ontology was determined using the Database for Annotation, Visualization, and Integrated Discovery (DAVID). […] FVMs and cells were immunostained with standard protocols for paraffin embedded samples.\n(§2) siRNA ([…]) (Integrated DNA Technologies; sequences in Table 4) was transfected for 6-8 h using DharmaFECT 1 (GE Life Sciences—Dharmacon) in Opti-MEM (Life Technologies).\n(§3) RNA was extracted using RNeasy Mini Kits (Qiagen). Primers were purchased from Integrated DNA Technologies for 200 candidate genes (Table 4). Genes were excluded from further analysis if there was no amplification or amplification was outside the linear range. […] Fluorescent intensities were normalized to spike-in controls (ERCC RNA Spike-In Mix; Life Technologies), HPRT1, and B2M."}, "RUNX2": {"tested_on": "RUNX2", "assay": "qRT-PCR of RUNX2 expression", "type": "cell-based, human", "details": "RUNX1 siRNA; 48 hours post-transfection", "experimental": "as §2, §3"}, "IGFBP3": {"tested_on": "IGFBP3", "assay": "qRT-PCR of IGFBP3 expression", "type": "cell-based, human", "details": "RUNX1 siRNA knockdown", "experimental": "as §2, §3\nHRMEC were transfected with pCMV5-AML1c (Addgene Plasmid #12426) (the plasmid contains the sequence of RUNX1 encoding 480 amino acids; in the sequences listed herein this corresponds to RUNX1g) or pCMV5 empty vector using the HCAEC Nucleofector kit (VPB-1001; Program S-005) following manufacturer's optimized protocol."}, "HRMEC [1]": {"tested_on": "HRMEC", "assay": "Scratch-wound migration assay", "type": "cell-based, human", "details": "for wound closure (scratch assay): siRNA knockdown of RUNX1, 0-12 h", "experimental": "as §1\nMigration was assessed with the scratch-wound assay (Liang C C et al. (2007) Nature Protocols 2(2):329-333). One scratch was generated per well and imaged on an EVOS® imaging system every three hours for 12 h. Images were analyzed with the TScratch Matlab module (Geback et al. (2009) Biotechniques 46(4):265-274)."}, "RUNX3": {"tested_on": "RUNX3", "assay": "qRT-PCR of RUNX3 expression", "type": "cell-based, human", "details": "RUNX1 siRNA; 48 hours post-transfection", "experimental": "as §2, §3"}, "HRMEC [2]": {"tested_on": "HRMEC", "assay": "Ki67 proliferation assay", "type": "cell-based, human", "experimental": "FVMs and cells were incubated with mouse anti-RUNX1 (Santa Cruz) followed by biotinylated secondary antibody (Vector Laboratories), horseradish peroxidase (HRP)-labeled avidin (PerkinElmer), tyramide signal amplification (TSA, PerkinElmer), Vector Red chromogenic substrate (Vector Laboratories) and Gill no. 3 hematoxylin counterstain (Sigma-Aldrich). Immunofluorescent staining for CD31 (mouse anti-CD31; Dako) and Ki67 (rabbit anti-Ki67; Novus Biologicals) was performed as previously described (Kim L A, et al. (2015) Mol Vis 21:673-687). The number of Ki67 positive nuclei was averaged for three fields of view per sample at 20× magnification.\nHRMEC were probed for proliferation with the Ki67 marker as follows: cells were permeabilized with 0.5% Triton X-100 in PBS for 5 min, blocked with 5% goat serum in PBS for 2 h at room temperature, incubated with primary antibody overnight at 4° C. (rabbit anti-Ki67 1:50; Novus Biologicals), and incubated with secondary for 2 h at room temperature (goat anti-rabbit Alexa Fluor 594 1:250; Life Technologies Corp.). Samples were imaged using an EVOS® imaging system. The number of Ki67 positive nuclei was averaged for three fields of view per sample at 20× magnification."}, "RUNX1 protein": {"tested_on": "RUNX1 protein", "assay": "Western blot of RUNX1 protein", "type": "cell-based, human", "details": "72 hours", "experimental": "FIG. 13 is an image showing that a commercially available small molecule PIM3 inhibitor (PIM3 kinase inhibitor VII from EMD Millipore) reduced total RUNX1 protein levels in primary culture retinal endothelial cells in normal and high glucose conditions. Human microvascular retinal endothelial cells were cultured in EGM-2 supplemented with different concentrations of D-glucose for 72 hours in the presence of PIM3 inhibitor (PIM3 kinase inhibitor VII from EMD Millipore, Cat No. 526526, 0.05 μM) or vehicle (DMSO). After harvest, proteins were extracted using RIPA buffer and analyzed by western blot. RUNX1 was detected using antibodies from Santacruz (sc-365644). β-actin was used as a loading control.\nFIG. 19 is set of images showing that gamma-secretase inhibition using Compound E small molecule (100 nM) reduces the expression of RUNX1 in primary culture human microvascular endothelial cells. […]\nWestern Blot Analysis: Cells were lysed using RIPA buffer (Cell Signaling Technology (CST)). […] Immunoreactive bands were visualized using the Odyssey Infrared Imaging System and band intensities normalized to β-actin were quantified using Image Studio version 2.1 (LI-COR)."}, "HRMEC [3]": {"tested_on": "HRMEC", "assay": "Tube forming assay", "type": "cell-based, human", "experimental": "HRMEC were treated overnight with 75 μM Ro5-3335 or DMSO before plating 20000 cells onto wells pre-coated with basement membrane extract (Trevigen). Cells were imaged six h after plating and tube formation was quantified using the Angiogenesis Analyzer plugin for ImageJ."}, "C57BL/6J mice with OIR": {"tested_on": "C57BL/6J mice with OIR", "assay": "Oxygen-induced retinopathy (OIR) mouse model, retinal flat mounts", "type": "in vivo", "details": "P17", "experimental": "OIR was induced in wild-type C57BL/6J mice as previously described (Smith L E et al., (1994) Invest Ophthalmol Vis Sci 35(1):101-111). Intravitreal injections with 1 μL of 75 μM Ro5-3335 RUNX1 inhibitor or DMSO were performed on left eyes only at P13 and P15 under ketamine/xylazine anesthesia. Pups were euthanized at P17 and eyes were collected, fixed in 4% paraformaldehyde, and used for retinal flat mounts (nvehicle=7; nRo5-3335=9). Avascular and neovascular areas were quantified using Photoshop as previously described (Connor H M et al., (2009) Nature Protocols 4(11):1565-1573)."}, "HES1": {"tested_on": "HES1", "assay": "qRT-PCR of HES1 expression", "type": "cell-based, human", "details": "100 nM; 72 hours; 5 mM and 30 mM D-glucose; vs DMSO", "experimental": "FIG. 18 is a graph showing that gamma-secretase inhibition using Compound E small molecule (100 nM) reduced the expression of HES1, a canonical downstream target for Notch activity and RUNX1 in primary culture human microvascular endothelial cells. Reduction of HES1 and RUNX1 expression was effective under normal glucose (5 mM D-glucose and high glucose 30 mM D-glucose). Cells were incubated with Compound E or DMSO vehicle control in different glucose concentrations for 72 hours before harvest followed by qRT-PCR for each gene. HPRT1 expression was used as control.\nas §3"}, "[4]": {"details": "HIV treatment trial, Haubrich et al. (1995); cited from earlier work"}, "[5]": {"details": "HRMEC treated overnight with 75 μM Ro5-3335, imaged 6 h after plating, vs DMSO"}, "[6]": {"details": "intravitreal 75 μM at P13 and P15, vs vehicle"}}, "note": "“Also recorded” adds a separate entry of the source.", "data": [{"molecule": "RUNX1 siRNA: siRNA against human RUNX1, Integrated DNA Technologies; duplex hs.Ri.RUNX1.13.3 (SEQ ID NO: 247/248) (chain 1 CCUUUCAUGUUAAUCAAACAAGUGA; chain 2 UCACUUGUUUGAUUAACAUGAAAGGGA; listed as RNA, chemistry not fully specified)", "values": [{"measurement": "reduction of RUNX1 RNA expression", "setting": "RUNX1; RUNX1 siRNA, 48 hours post-transfection", "value": 60, "unit": "%"}, {"measurement": "RUNX2 RNA expression", "setting": "RUNX2", "value": "did not significantly affect; also recorded: no significant changes"}, {"measurement": "increase in IGFBP3 mRNA expression", "setting": "IGFBP3", "value": 330, "unit": "%"}, {"measurement": "decrease in wound closure rate", "setting": "HRMEC [1]; RUNX1 siRNA knockdown, monitored 12 h, vs controls", "value": 60, "unit": "%"}, {"measurement": "wound closure (scratch assay)", "setting": "HRMEC [1]", "value": "effectively inhibits wound closure"}, {"measurement": "RUNX3 RNA expression", "setting": "RUNX3", "value": "did not significantly affect; also recorded: no significant changes"}, {"measurement": "cell number and proliferative capacity (Ki67 staining)", "setting": "HRMEC [2]; 48 h post transfection, vs transfection reagent alone or scramble siRNA", "value": "significant reduction"}, {"measurement": "fewer Ki67 positive cells", "setting": "HRMEC [2]; RUNX1 siRNA transfected EC vs controls", "value": 60, "unit": "%"}]}, {"molecule": "CC/C(=N\\NC(=O)c1ccnc(NCCCN2CCOCC2)c1)c1ccc(Cl)cc1O", "note": "[PIM3 kinase inhibitor VII, N′-(1-(4-Chloro-2-hydroxyphenyl)propylidene)-2-((3-morpholinopropyl)amino)isonicotinohydrazide]", "values": [{"measurement": "total RUNX1 protein levels", "setting": "RUNX1 protein; 0.05 μM, normal and high glucose, vs DMSO", "value": "reduced"}]}, {"molecule": "N[C@@H]1CCCN(c2c(/C=C3\\SC(=O)NC3=O)cccc2-c2ccccc2)C1", "note": "[AZD1208]", "values": [{"measurement": "reduction in cell migration", "setting": "HRMEC [2]; treated 48 hours before proliferation assay, Ki67 marker, vs DMSO control", "value": 43, "unit": "%"}]}, {"molecule": "siRNA-2: second RUNX1 siRNA; probably duplex HSC.RNAI.N001001890.12.1 (SEQ ID NO: 249/250) (chain 1 ACUAGAUGAUCAGACCAAGCCCGGG; chain 2 CCCGGGCUUGGUCUGAUCAUCUAGUUU; listed as RNA, chemistry not fully specified)", "values": [{"measurement": "wound closure (scratch assay)", "setting": "HRMEC [1]", "value": "functional inhibition"}]}, {"molecule": "O=C1CN=C(c2ccc[nH]2)c2cc(Cl)ccc2N1", "note": "[Ro5-3335]", "values": [{"measurement": "meshes reduction", "setting": "HRMEC [3]; [5]", "value": 46, "unit": "%"}, {"measurement": "nodes reduction", "setting": "HRMEC [3]; [5]", "value": 35, "unit": "%"}, {"measurement": "total tube length reduction", "setting": "HRMEC [3]; [5]", "value": 18, "unit": "%"}, {"measurement": "tube forming capacity", "setting": "HRMEC [3]; overnight treatment, 6 h after plating, vs vehicle treated cells", "value": "reduced tube forming capacity"}, {"measurement": "avascular area (extent of vaso-obliteration)", "setting": "C57BL/6J mice with OIR; [6]", "value": "no significant change; also recorded: non-significant downward trend"}, {"measurement": "neovascularization / neovascular tufts", "setting": "C57BL/6J mice with OIR; [6]", "value": "significant reduction"}, {"measurement": "reduction in neovascularization", "setting": "C57BL/6J mice with OIR; intravitreal 1 μL of 75 μM at P13 and P15, vs vehicle treated eyes", "value": 50, "unit": "%"}]}, {"molecule": "C[C@H](NC(=O)Cc1cc(F)cc(F)c1)C(=O)N[C@H]1N=C(c2ccccc2)c2ccccc2N(C)C1=O", "note": "[Compound E]", "values": [{"measurement": "RUNX1 expression (qRT-PCR)", "setting": "RUNX1; 100 nM, 72 hours, 5 mM and 30 mM D-glucose, vs DMSO", "value": "reduced"}, {"measurement": "HES1 expression", "setting": "HES1", "value": "reduced"}, {"measurement": "RUNX1 expression (western blot)", "setting": "RUNX1 protein; 100 nM, 5 mM and 30 mM D-glucose", "value": "reduces"}]}, {"molecule": "CNC1=Nc2ccc(Cl)cc2C(c2ccc[nH]2)=NC1", "note": "[Ro24-7429]", "values": [{"measurement": "safety in clinical trial", "setting": "[4]", "value": "safe"}]}]}
